Experimental data: patent US11591355B2 (Peloton Therapeutics, Inc., priority 2017, dated 2023)

Key:
Human CD73 = target: T1, Human CD73 (Homo sapiens, UniProt P21589); assay: CD73 Enzyme Assay; type: biochemical; details: 0.25 nM hCD73, 25 μM AMP, kinetic read at 360 nm; read-out: CD73 Enzyme Assay IC50
T1 construct: purchased R&D Systems; host or cells: CHO cells
T1 sequence (P21589 27-549): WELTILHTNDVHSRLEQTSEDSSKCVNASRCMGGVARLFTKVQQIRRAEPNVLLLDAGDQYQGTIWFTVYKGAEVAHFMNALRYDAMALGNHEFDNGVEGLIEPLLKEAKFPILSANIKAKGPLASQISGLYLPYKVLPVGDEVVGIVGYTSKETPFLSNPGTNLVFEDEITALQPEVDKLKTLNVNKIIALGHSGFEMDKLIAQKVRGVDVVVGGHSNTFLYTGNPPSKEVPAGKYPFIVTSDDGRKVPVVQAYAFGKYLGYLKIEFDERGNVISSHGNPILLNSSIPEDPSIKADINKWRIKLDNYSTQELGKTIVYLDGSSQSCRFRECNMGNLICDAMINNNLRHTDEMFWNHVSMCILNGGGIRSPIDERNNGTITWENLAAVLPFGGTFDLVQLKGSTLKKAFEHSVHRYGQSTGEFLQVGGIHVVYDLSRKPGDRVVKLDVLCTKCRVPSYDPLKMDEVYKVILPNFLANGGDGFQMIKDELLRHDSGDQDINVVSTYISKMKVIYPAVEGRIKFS

[1] = target: T2, CD73 on U138 human neuroglioma cells (Homo sapiens, UniProt P21589); assay: CD73 Cell-Based Assay; details: U138 cells, AMP substrate, 2 hours at 37° C., inorganic phosphate by malachite green
T2 construct: U138 cells were obtained from ATCC and cultured in DMEM with 10% FBS; host or cells: U138 human neuroglioma cells
T2 sequence (P21589 27-549): T1 sequence (P21589 27-549)
Procedure: U138 human neuroglioma cells were used in these experiments. U138 cells were obtained from ATCC and cultured in DMEM with 10% FBS. 2500 cells were seeded into 96-well plate with 100 μL of media the day before the experiment. Cells were washed twice with 200 μL of assay buffer (20 mM HEPES, pH 7.4; 137 mM NaCl; 5.4 mM KCl; 1.3 mM CaCl2); 4.2 mM NaHCO3; 1 mg/mL glucose) to remove residual inorganic phosphate. After washing, 100 μL of buffer was added to each well, then 100 μL of a mixture of AMP substrate (200 μM) and diluted compound was added to each well. The cells were incubated at 37° C. (with 5% CO2) for 2 hours. 50 μL of supernatant was transferred to a 96-well assay plate and the concentration of inorganic phosphate was determined using malachite green reagent (R&D System; Cat: DY996).

| Compound | IC50 (Human CD73) | IC50 [1] |
| --- | --- | --- |
| CCNc1nc(Cl)nc2c1ccn2[C@@H]1O[C@H](CS(=O)(=O)CP(=O)(O)O)[C@@H](O)[C@H]1O [Compound 176, [(2S,3S,4R,5R)-5-[2-chloro-4-(ethylamino)-pyrrolo[2,3-d]-pyrimidin-7-yl]-3,4-dihydroxy-tetrahydro-furan-2-yl]methyl-sulfonylmethylphos-phonic acid] | 10 to 100 nM | 10 to 100 nM |
| O=P(O)(COC[C@H]1O[C@@H](n2ccc3c(NC4CCCC4)nc(Cl)nc32)[C@H](O)[C@@H]1O)OCC(F)(F)F [Compound 232, [(2R,3S,4R,5R)-5-[2-chloro-4-(cyclopentyl-amino)pyrrolo[2,3-d]-pyrimidin-7-yl]-3,4-dihydroxy-tetrahydro-furan-2-yl]methoxy-methyl-(2,2,2-trifluoro-ethoxy)phosphinic acid] | 10 to 100 nM | 10 to 100 nM |
| C[C@H](Nc1nc(Cl)nc2c1cnn2[C@@H]1O[C@H](COCP(=O)(O)O)[C@@H](O)[C@H]1O)c1ccc(F)cc1 [Compound 265, [(2R,3S,4R,5R)-5-[6-chloro-4-[[(1S)-1-(4-fluorophenyl)ethyl]-amino]pyrazolo[3,4-d]-pyrimidin-1-yl]-3,4-dihydroxy-tetrahydro-furan-2-yl]methoxy-methylphosphonic acid] | 10 to 100 nM | 10 to 100 nM |
| CC(C)Nc1nc(C#N)nc2c1ccn2[C@@H]1O[C@H](COCP(=O)(O)O)[C@@H](O)[C@H]1O [Compound 97, [(2R,3S,4R,5R)-5-[2-cyano-4-(isopropyl-amino)pyrrolo[2,3-d]-pyrimidin-7-yl]-3,4-dihydroxy-tetrahydro-furan-2-yl]methoxy-methylphosphonic acid] | 10 to 100 nM | < 10 nM |
| Cc1ccc([C@@H](C)Nc2nc(C#N)nc3c2ccn3[C@@H]2O[C@H](COCP(=O)(O)O)[C@@H](O)[C@H]2O)cc1 [Compound 137, [(2R,3S,4R,5R)-5-[2-cyano-4-[[(1R)-1-(p-tolyl)ethyl]amino]-pyrrolo[2,3-d]-pyrimidin-7-yl]-3,4-dihydroxy-tetrahydro-furan-2-yl]methoxy-methylphosphonic acid] | 10 to 100 nM | < 10 nM |
| CC(C)(O)C#Cc1nc(NC2CCCC2)c2ccn([C@@H]3O[C@H](COCP(=O)(O)O)[C@@H](O)[C@H]3O)c2n1 [Compound 272, [(2R,3S,4R,5R)-5-[4-(cyclopentylamino)-2-(3-hydroxy-3-methyl-but-1-ynyl)pyrrolo[2,3-d]pyrimidin-7-yl]-3,4-dihydroxy-tetrahydro-furan-2-yl]methoxy-methylphosphonic acid] | 10 to 100 nM | < 10 nM |
| C[C@H](Nc1nc(C#N)nc2c1ccn2[C@@H]1O[C@H](COCP(=O)(O)O)[C@@H](O)[C@H]1O)c1ccccc1 [Compound 67, [(2R,3S,4R,5R)-5-[2-cyano-4-[[(1S)-1-phenylethyl]amino]-pyrrolo[2,3-d]-pyrimidin-7-yl]-3,4-dihydroxy-tetrahydro-furan-2-yl]methoxy-methylphosphonic acid] | 10 to 100 nM | < 10 nM |
| C[C@@H](Nc1nc(Cl)nc2c1c(F)cn2[C@@H]1O[C@H](COCP(=O)(O)O)[C@@H](O)[C@H]1O)c1ccccc1 [Compound 130, [(2R,3S,4R,5R)-5-[2-chloro-5-fluoro-4-[[(1R)-1-phenylethyl]-amino]pyrrolo[2,3-d]-pyrimidin-7-yl]-3,4-dihydroxy-tetrahydro-furan-2-yl]methoxy-methylphosphonic acid] | 10 to 100 nM | 10 to 100 nM |
| O=P(O)(O)COC[C@H]1O[C@@H](n2ncc3c(NC4CCCC4)nc(Cl)nc32)[C@H](O)[C@@H]1O [Compound 240, ((((2R,3S,4R,5R)-5-(6-chloro-4-(cyclopentylamino)-1H-pyrazolo[3,4-d]pyrimidin-1-yl)-3,4-dihydroxytetrahydrofuran-2-yl)methoxy)methyl)phosphonic acid] | < 10 nM | < 10 nM |
| O=P(O)(O)COC[C@H]1O[C@@H](n2ccc3c(NCc4ccccc4)nc(Cl)nc32)[C@H](O)[C@@H]1O [Compound 56, [(2R,3S,4R,5R)-5-[4-(benzylamino)-2-chloro-pyrrolo[2,3-d]-pyrimidin-7-yl]-3,4-dihydroxy-tetrahydro-furan-2-yl]methoxy-methylphosphonic acid] | 10 to 100 nM | 10 to 100 nM |

Continued, values first:

| IC50 (Human CD73) | IC50 [1] | Compound |
| --- | --- | --- |
| < 10 nM | < 10 nM | Cc1ccc([C@H](C)Nc2nc(Cl)nc3c2ccn3[C@@H]2O[C@H](COCP(=O)(O)O)[C@@H](O)[C@H]2O)cc1 [Compound 90, [(2R,3S,4R,5R)-5-[2-chloro-4-[[(1S)-1-(p-tolyl)ethyl]amino]-pyrrolo[2,3-d]-pyrimidin-7-yl]-3,4-dihydroxy-tetrahydro-furan-2-yl]methoxy-methylphosphonic acid] |
| < 10 nM | < 10 nM | C[C@@H](Nc1nc(Cl)nc2c1ccn2[C@@H]1O[C@H](COCP(=O)(O)O)[C@@H](O)[C@H]1O)c1ccccc1 [Compound 61, [(2R,3S,4R,5R)-5-[2-chloro-4-[[(1R)-1-phenylethyl]amino]pyrrolo[2,3-d]pyrimidin-7-yl]-3,4-dihydroxy-tetrahydrofuran-2-yl]methoxymethylphosphonic acid] |
| < 10 nM | < 10 nM | COCC#Cc1nc(NC2CCCC2)c2ccn([C@@H]3O[C@H](COCP(=O)(O)O)[C@@H](O)[C@H]3O)c2n1 [Compound 252, [(2R,3S,4R,5R)-5-[4-(cyclopentylamino)-2-(3-methoxyprop-1-ynyl)pyrrolo[2,3-d]-pyrimidin-7-yl]-3,4-dihydroxy-tetrahydro-furan-2-yl]methoxy-methylphosphonic acid] |
| < 10 nM | < 10 nM | N#Cc1nc(NC2CCCC2)c2ccn([C@@H]3O[C@H](COCP(=O)(O)O)[C@@H](O)[C@H]3O)c2n1 [Compound 71, [(2R,3S,4R,5R)-5-[2-cyano-4-(cyclopentyl-amino)pyrrolo[2,3-d]-pyrimidin-7-yl]-3,4-dihydroxy-tetrahydro-furan-2-yl]methoxy-methylphosphonic acid] |
| < 10 nM | < 10 nM | C[C@@H](Nc1nc(Cl)nc2c1ccn2[C@@H]1O[C@H](CS(=O)(=O)CP(=O)(O)O)[C@@H](O)[C@H]1O)c1ccc(F)cc1F [Compound 178, (((((2S,3S,4R,5R)-5-(2-chloro-4-(((R)-1-(2,4-difluorophenyl)ethyl)amino)-7H-pyrrolo[2,3-d]pyrimidin-7-yl)-3,4-dihydroxytetrahydrofuran-2-yl)methyl)sulfonyl)methyl)phosphonic acid] |
| < 10 nM | < 10 nM | N#Cc1nc(N2CCC(F)(F)C2)c2ccn([C@@H]3O[C@H](COCP(=O)(O)O)[C@@H](O)[C@H]3O)c2n1 [Compound 125, [(2R,3S,4R,5R)-5-[2-cyano-4-(3,3-difluoropyrrolidin-1-yl)-pyrrolo[2,3-d]-pyrimidin-7-yl]-3,4-dihydroxy-tetrahydro-furan-2-yl]methoxy-methylphosphonic acid] |
| < 10 nM | < 10 nM | N#Cc1nc(N2CC3CCCC3C2)c2ccn([C@@H]3O[C@H](CS(=O)(=O)CP(=O)(O)O)[C@@H](O)[C@H]3O)c2n1 (stereo partly drawn) [Compound 158, [(2S,3S,4R,5R)-5-[4-(3,3a,4,5,6,6a-hexa-hydro-1H-cyclopenta-[c]pyrrol-2-yl)-2-cyano-pyrrolo[2,3-d]-pyrimidin-7-yl]-3,4-dihydroxy-tetrahydro-furan-2-yl]methyl-sulfonylmethylphos-phonic acid] |
| < 10 nM | < 10 nM | C[C@@H](Nc1nc(Cl)nc2c1ccn2[C@@H]1O[C@H](COCP(=O)(O)O)[C@@H](O)[C@H]1O)c1ccc(F)cc1F [Compound 144, [(2R,3S,4R,5R)-5-[2-chloro-4-[[(1R)-1-(2,4-difluorophenyl)-ethyl]amino]pyrrolo-[2,3-d]pyrimidin-7-yl]-3,4-dihydroxy-tetrahydrofuran-2-yl]-methoxymethylphos-phonic acid] |
| < 10 nM | 10 to 100 nM | C[C@@H](Nc1nc(C#N)nc2c1ccn2[C@@H]1O[C@H](COCP(=O)(O)O)[C@@H](O)[C@H]1O)c1ccc(C(F)(F)F)cc1 [Compound 115, [(2R,3S,4R,5R)-5-[2-cyano-4-[[(1R)-1-[4-(trifluoromethyl)-phenyl]ethyl]amino]-pyrrolo[2,3-d]-pyrimidin-7-yl]-3,4-dihydroxy-tetrahydro-furan-2-yl]methoxy-methylphosphonic acid] |
